Source: US8658794B2, “8-methyl-1-phenyl-imidazol[1,5-a]pyrazine compounds as Lck inhibitors and uses thereof” (Merck Sharp & Dohme B.V., priority 2010, dated 2014)

molecular target: T1, N-terminal His6-tagged recombinant full-length human Lck (Homo sapiens, UniProt P06239); assay: Lck IMAP assay; assay type: biochemical; settings: ATP 6 μM (KM,ATP), enzyme pre-incubated with compounds for 60 minutes, values given as bins
T1 construct: N-terminal His6-tagged recombinant full-length human Lck; His6 (N); purchased Millipore
T1 sequence (P06239 whole entry): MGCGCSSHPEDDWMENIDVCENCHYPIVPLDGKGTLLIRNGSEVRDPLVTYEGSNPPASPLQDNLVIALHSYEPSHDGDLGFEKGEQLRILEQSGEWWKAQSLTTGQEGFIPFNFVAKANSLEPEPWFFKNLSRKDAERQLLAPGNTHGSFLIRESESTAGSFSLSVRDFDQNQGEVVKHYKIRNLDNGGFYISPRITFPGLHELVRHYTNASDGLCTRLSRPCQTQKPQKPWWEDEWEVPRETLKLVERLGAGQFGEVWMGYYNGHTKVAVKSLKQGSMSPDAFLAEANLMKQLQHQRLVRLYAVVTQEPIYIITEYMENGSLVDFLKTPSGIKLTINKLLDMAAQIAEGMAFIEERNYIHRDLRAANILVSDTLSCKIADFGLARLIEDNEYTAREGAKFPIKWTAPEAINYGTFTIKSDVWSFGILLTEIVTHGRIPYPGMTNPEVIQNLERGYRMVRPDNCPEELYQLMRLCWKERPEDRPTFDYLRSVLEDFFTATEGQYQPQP
Excerpt: Inhibition of kinase activity can be measured using the Immobilized Metal Assay for Phosphochemicals (IMAP) assay. IMAP is a homogeneous fluorescence polarization (FP) assay based on affinity capture of phosphorylated peptide substrates. IMAP uses fluorescein-labeled peptide substrates that, upon phosphorylation by a protein kinase, bind to so-called IMAP nanoparticles, which are derivatized with trivalent metal complexes. Binding causes a change in the rate of the molecular motion of the peptide, and results in an increase in the FP value observed for the fluorescein label attached to the substrate peptide (Gaudet et al. A homogeneous fluorescence polarization assay adaptable for a range of protein serine/threonine and tyrosine kinases. J. Biomol. Screen (2003) 8, 164-175).
Enzyme used was N-terminal His6-tagged recombinant full-length human Lck from Millipore. Phosphorylation substrate was a fluorescein-labeled peptide (5FAM-KVEKIGEGTYGVV—NH2) derived from p34cdc2 from Molecular Devices. Enzymes, substrate and ATP were diluted in Kinase Reaction buffer (10 mM Tris-HCl, 10 mM MgCl2, 0.01% Tween-20, 0.05% NaN3 pH 7.2, 1 mM DTT (dithiotreitol). The final volume at the kinase reaction step of the assay in the 384-well plate was 20 μl. Final amount of enzyme in the reaction was 0.1 U/ml. Enzyme was pre-incubated with compounds diluted in 1% DMSO (dimethylsulfoxide) for 60 minutes at room temperature in the dark. Subsequently, peptide substrate to a final concentration of 100 nM, and ATP to a final concentration of 6 μM were added and the mix was incubated for 120 minutes at room temperature in the dark. IMAP progressive binding buffer (75% 1× buffer A, 25% 1× buffer B with 1:600 Progressive Binding Reagent; Molecular Devices) was added, followed by an incubation step of 60 minutes at room temperature in the dark. Finally, the FP signal was read on an Envision Multilabel reader (Perkin Elmer).
All biochemical assays were run at KM,ATP of the enzyme using non-saturated conditions, meaning that during the incubation time it was assured that the signal increase was linear with time. For all biochemical assays a reference standard was used on each plate.
Ten point serial dilutions using a √10 dilution factor were used for dose response testing of compounds. Starting concentration was 10^-6M for Lck IMAP assays. Dose-response curves were run as two experiments on duplicate plates (N=1; n=2). All data was normalized to percentage effect based on maximum (Max) and minimum (Min) control values. On every 384 assay plate 16 wells were used as minimum wells (wells with ATP, 0% effect) and 16 wells were used as maximum wells (wells without ATP, 100% effect). 16 wells were used for measuring the background signal, obtained from a kinase reaction containing all constituents except the labeled peptide substrate. Percentage effect was plotted against log dilution concentration of compound to obtain sigmoid dose response curves. pIC50 values were calculated using ActivityBase.

SMILES	IC50
COCCN(C)[C@H]1CC[C@@H](c2nc(-c3ccc(NC(=O)c4cc5c(OC)cccc5n4C)c(OC)c3)c3c(C)nccn32)CC1 [Example 26c, 4-methoxy-N-(2-methoxy-4-(3-((cis)-4-((2-methoxyethyl)(methyl)amino)cyclo-hexyl)-8-methylimidazo[1,5-a]pyrazin-1-yl)phenyl)-1-methyl-1H-indole-2-carboxamide]	≤ 10 nM
COc1ccc2[nH]c(C(=O)Nc3ccc(-c4nc(C5CCOCC5)n5ccnc(C)c45)cc3OC)cc2n1 [Example 42, 5-methoxy-N-(2-methoxy-4-(8-methyl-3-(tetrahydro-2H-pyran-4-yl)imidazo[1,5-a]pyrazin-1-yl)phenyl)-1H-pyrrolo[3,2-b]pyridine-2-carboxamide]	10 to 100 nM
COc1cc(-c2nc(C3CCOCC3)n3ccnc(C)c23)ccc1NC(=O)O[C@@H](C)CCO [Example 44, (S)-4-hydroxybutan-2-yl 2-methoxy-4-(8-methyl-3-(tetrahydro-2H-pyran-4-yl)imidazo[1,5-a]pyrazin-1-yl)phenylcarbamate]	10 to 100 nM
CCC[C@H](C)OC(=O)Nc1ccc(-c2nc([C@H]3CC[C@H](CNC(C)=O)CC3)n3ccnc(C)c23)cc1OC [Example 69, (S)-pentan-2-yl 4-(3-((trans)-4-(acetamidomethyl)cyclohexyl)-8-methylimidazo[1,5-a]pyrazin-1-yl)-2-methoxyphenylcarbamate]	≤ 10 nM
CCC[C@H](C)OC(=O)Nc1ccc(-c2nc([C@H]3CCN(C(=O)COC)C3)n3ccnc(C)c23)cc1OC [Example 50, (S)-pentan-2-yl 2-methoxy-4-(3-((S)-1-(2-methoxyacetyl)pyrrolidin-3-yl)-8-methylimidazo[1,5-a]pyrazin-1-yl)phenylcarbamate]	≤ 10 nM

Continued, values first:

IC50	SMILES
≤ 10 nM	CCC[C@H](C)OC(=O)Nc1ccc(-c2nc([C@H]3CC[C@@H](N4CCN(C)CC4)CC3)n3ccnc(C)c23)cc1OC [Example 33f, (S)-pentan-2-yl 2-methoxy-4-(8-methyl-3-((cis)-4-(4-methylpiperazin-1-yl)cyclohexyl)imidazo[1,5-a]pyrazin-1-yl)phenylcarbamate]
≤ 10 nM	COc1cc(-c2nc([C@H]3CC[C@H](N4CCN(C)CC4)CC3)n3ccnc(C)c23)ccc1NC(=O)c1cc(Cl)cn1C [Example 55, 4-Chloro-N-(2-methoxy-4-(8-methyl-3-((trans)-4-(4-methylpiperazin-1-yl)cyclohexyl)imidazo[1,5-a]pyrazin-1-yl)phenyl)-1-methyl-1H-pyrrole-2-carboxamide]
≤ 10 nM	COc1cc(-c2nc([C@H]3CC[C@H](N(C)C)CC3)n3ccnc(C)c23)ccc1NC(=O)c1cc2c(OC)cccc2n1C [Example 26b, N-(4-(3-((trans)-4-(dimethylamino)cyclohexyl)-8-methylimidazo[1,5-a]pyrazin-1-yl)-2-methoxyphenyl)-4-methoxy-1-methyl-1H-indole-2-carboxamide]
≤ 10 nM	COc1ccc2c(C(=O)Nc3ccc(-c4nc([C@H]5CC[C@H](N6CCN(C)CC6)CC5)n5ccnc(C)c45)cc3OC)n[nH]c2c1 [Example 66, 6-Methoxy-N-(2-methoxy-4-(8-methyl-3-((trans)-4-(4-methylpiperazin-1-yl)cyclohexyl)imidazo[1,5-a]pyrazin-1-yl)phenyl)-1H-indazole-3-carboxamide]
≤ 10 nM	COc1cc(-c2nc([C@H]3CC[C@H](N4CCN(C)C(=O)C4)CC3)n3ccnc(C)c23)ccc1NC(=O)c1cc2c(OC)cccc2n1C [Example 74, 4-Methoxy-N-(2-methoxy-4-(8-methyl-3-((trans)-4-(4-methyl-3-oxopiperazin-1-yl)cyclohexyl)imidazo[1,5-a]pyrazin-1-yl)phenyl)-1-methyl-1H-indole-2-carboxamide]
≤ 10 nM	COc1cc(-c2nc(C3CCN(C(N)=O)CC3)n3ccnc(C)c23)ccc1NC(=O)c1cc2c(OC)cccc2n1C [Example 21, N-(4-(3-(1-carbamoylpiperidin-4-yl)-8-methylimidazo[1,5-a]pyrazin-1-yl)-2-methoxyphenyl)-4-methoxy-1-methyl-1H-indole-2-carboxamide]
